The values below come from patent US9670261B2 (Sanofi, priority 2012, dated 2017).

One data set has as its target T1, human GLP-1 receptor (Homo sapiens, UniProt P43220).
T1 construct: expressed in transfected cells
Briefly: cAMP response (HTRF) of HEK-293 cells stably expressing human GLP-1 receptor. The format is cell-based. Particulars: Table 7; cAMP formation; read-out: EC50 hGLP-1 R. In short, it runs like this: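 Stably transfected HEK-293 cells, accutase-harvested; assay buffer 1×HBSS/20 mM HEPES/0.1% BSA/2 mM IBMX; 400000 cells/ml; compound 30 min, RT; cAMP by HTRF kit.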

Data set [1] deals with female diabetic dbdb-mice. Briefly: Glucose, HbA1c and oral glucose tolerance in diabetic dbdb-mice, chronic treatment (method 4). The format is in vivo. The protocol: 8 week old, female diabetic dbdb-mice of mean non-fasted glucose value of 14.5 mmol/l and a body weight of 37-40 g were used. Mice were individually marked and were adapted to housing conditions for at least one week.
7 days prior to study start, baseline values for non-fasted glucose and HbA1c were determined, 5 days prior to study start, mice were assigned to groups and cages (5 mice per cage, 10 per group) according to their HbA1c values to ensure even distribution of lower and higher values between groups (stratification).
Mice were treated for 4 weeks, by once daily subcutaneous administration 3 hours prior to the dark phase (6 pm to 6 am). Blood samples from a tail tip incision were obtained for HbA1c on study day 21 and oral glucose tolerance was assessed in the 4th week. Oral glucose tolerance test was done in the morning without prior extra compound administration to majorly assess the effect of chronic treatment and less of acute compound administration. Mice were fasted for 4 hours prior to oral glucose administration (2 g/kg, t=0 min). Blood samples were drawn prior to glucose administration and at 15, 30, 60, 90, 120, and 180 min thereafter. Feed was returned after the last blood sampling. Results are represented as change from baseline, glucose in mmol/l and HbA1c in %.
Statistical analyses are performed with Everstat Version 6.0 based on SAS by 1-way-ANOVA, followed by Dunnett's post-hoc test against vehicle-control. Differences are considered statistically significant at the p<0.05 level.
Female dbdb-mice, received 3 and 10 μg/kg of SEQ ID NO: 16 and 10 μg/kg of SEQ ID NO: 21 or phosphate buffered saline (vehicle control) once daily, subcutaneously over four weeks.

Data set [2] in a line: Pharmacokinetic testing in mice, s.c. To be noted: mouse, plasma, sc, 1 mg/kg.
Experimental: Mice were dosed 1 mg/kg subcutaneously (s.c.). The mice were sacrified and blood samples were collected after 0.25, 0.5, 1, 2, 4, 8, 16 and 24 hours post application. Plasma samples were analyzed after protein precipitation via liquid chromatography mass spectrometry (LC/MS). PK parameters and half-life were calculated using WinonLin Version 5.2.1 (non-compartment model).

*1 amine or outer side, *2 acyl side, *3 side chain or, on linkers, in order; H or OH if unused. Where a SMILES comes first, the peptide text is derived from it. Side-chain parts run from the residue outwards. [ ]: non-standard residue; d: D form. The star is where a group is joined. γGlu = O=C(O)[C@H](CCC(=O)[*:2])N[*:1]; Stearoyl = CCCCCCCCCCCCCCCCCC(=O)*; Aib = CC(C)(N)C(=O)O

T1 sequence (P43220 24-463): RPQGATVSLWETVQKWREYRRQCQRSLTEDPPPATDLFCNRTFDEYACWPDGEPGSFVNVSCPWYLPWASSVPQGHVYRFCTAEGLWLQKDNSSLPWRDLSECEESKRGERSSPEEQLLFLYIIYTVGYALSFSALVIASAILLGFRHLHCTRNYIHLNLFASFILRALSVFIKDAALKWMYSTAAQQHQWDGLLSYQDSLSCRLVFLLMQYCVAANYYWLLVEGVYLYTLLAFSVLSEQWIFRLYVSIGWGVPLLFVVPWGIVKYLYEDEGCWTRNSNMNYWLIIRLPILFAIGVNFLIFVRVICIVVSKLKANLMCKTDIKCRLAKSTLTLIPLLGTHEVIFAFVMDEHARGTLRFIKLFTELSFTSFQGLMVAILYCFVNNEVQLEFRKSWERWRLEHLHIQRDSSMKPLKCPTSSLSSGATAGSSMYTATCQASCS

Turning to `CCCCCCCCCCCCCCCCCC(=O)N[C@@H](CCC(=O)N[C@@H](CCC(=O)NCCCC[C@H](NC(=O)[C@H](CCC(N)=O)NC(=O)[C@@H](NC(=O)[C@H](CO)NC(=O)[C@H](CC(C)C)NC(=O)[C@H](CC(=O)O)NC(=O)[C@H](CO)NC(=O)[C@@H](NC(=O)[C@H](Cc1ccccc1)NC(=O)[C@@H](NC(=O)CNC(=O)[C@H](CCC(=O)O)NC(=O)C(C)(C)NC(=O)[C@@H](N)Cc1ccc(O)cc1)[C@@H](C)O)[C@@H](C)O)[C@@H](C)CC)C(=O)N[C@@H](CCC(=O)O)C(=O)N[C@@H](CCCCN)C(=O)N[C@@H](CCCNC(=N)N)C(=O)N[C@@H](C)C(=O)N[C@@H](C)C(=O)NC(C)(C)C(=O)N[C@@H](CCC(=O)O)C(=O)N[C@@H](Cc1ccccc1)C(=O)N[C@H](C(=O)N[C@@H](CCC(=O)O)C(=O)N[C@@H](Cc1c[nH]c2ccccc12)C(=O)N[C@@H](CC(C)C)C(=O)N[C@@H](CCCCN)C(=O)N[C@@H](CC(N)=O)C(=O)N[C@H](C(=O)NCC(=O)N1CCC[C@H]1C(=O)N[C@@H](CO)C(=O)N[C@@H](CO)C(=O)NCC(=O)N[C@@H](C)C(=O)N1CCC[C@H]1C(=O)N1CCC[C@H]1C(=O)N1CCC[C@H]1C(=O)N[C@@H](CO)C(N)=O)[C@@H](C)O)[C@@H](C)CC)C(=O)O)C(=O)O` [SEQ ID NO: 16, Y-Aib-E-G-T-F-T-S-D-L-S-I-Q-K(γE-γE-x70)-E-K-R-A-A-Aib-E-F-I-E-W-L-K-N-T-G-P-S-S-G-A-P-P-P-S-NH2] (H-Y[Aib]EGTFTSDLSIQK([γGlu-γGlu-Stearoyl])EKRAA[Aib]EFIEWLKNTGPSSGAPPPS-NH2), the EC50 on human GLP-1 receptor is 4 pM. Also, the oral glucose tolerance entry in data set [1] (once daily s.c., oral glucose 2 g/kg in the 4th week) was “improved oral glucose tolerance”. Further, the “reduction of AUC under the glucose curve compared to vehicle control” value in data set [1] (oral glucose tolerance test, p<0.05) is “reached statistical significance”. In data set [2], this compound showed a Cmax of 3460 ng/mL and a half-life of 5.3 h.
